Data reported in patent US20020002294A1, “Estrogenic compounds as antiangiogenic agents” (priority 1997, published 2002).

How the values were obtained:
tubulin [1] = assay: inhibition of tubulin polymerization in vitro (turbidity at 350 nm); format: biochemical; conditions: read-out: IC50 (concentration required to inhibit tubulin polymerization by 50%); mean ± S.D.; method of Example 1
Method: Anti-mitotic activity can be evaluated by testing the ability of an estradiol derivative to inhibit tubulin polymerization and microtubule assembly in vitro. Microtubule assembly is followed in a Gilford recording spectrophotometer (model 250 or 2400S) equipped with electronic temperature controllers. A reaction mixture (all concentrations refer to a final reaction volume of […]) contains 1.0 M monosodium glutamate (ph 6.6), 1. omg/ml (10 μM) tubulin, 1.0 mM MgCl2, 4% (v/v) dimethylsulfoxide and 20-75μM of a composition to be tested. The 0.24 ml reaction mixtures are incubated for 15 min. at 37° C. and then chilled on ice. After addition of 10p1 2.5mM GTP, the reaction mixture is transferred to a cuvette at 0° C., and a baseline established. At time zero, the temperature controller of the spectrophotometer is set at 37° C. Microtubule assembly is evaluated by increased turbity at 350 nm.
A. Each reaction mixture (all concentrations refer to the final reaction volume of 0.25 ml) contained 1.0 M monosodium glutamate (pH 6.6), 1.0 mg/ml (10 μM) tubulin, 1.0 mM MgCl2, 4% (v/v) dimethylsulfoxide, and either 0 (curve 1), 20μM (curve 2), 40 μM (curve 3), or 75 μM (curve 4) 2-methoxyestradiol. The 0.24 ml reaction mixtures were incubated for 15 min. at 37° C and chilled on ice. After addition of 10 μl of 2.5 mM GTP the reaction mixtures were transferred to cuvettes held at 0° C., and baselines were established. At time zero the temperature controller was set at 37° C. At the times indicated by the vertical dashed lines the temperature controller was set at the indicated temperatures.
B. Each reaction mixture contained 0.8 M monosodium glutamate (pH 6.6), 1.2 mg/ml (12 μM) tubulin, 4% (v/v) dimethylsulfoxide, and either 0 (curve 1), 1.0 FM (curve 2), 2.0 ,M (curve 3), 3.0 μM (curve 4), or 4.0 μM (curve 5) 2-methoxyestradiol. The 0.24 ml reaction mixtures were incubated for 15 min. at 26° C. and chilled on ice. After addition of 10μl of 10 mM GTP the reaction mixtures were transferred to cuvettes held at 0° C., and baselines were established. At time zero the temperature controller was set at 26° C. At the time indicated by vertical dashed line the temperature controller was set at 0° C.
The method is given in Example 1.
S.D., standard deviation.

Renal cell lines = assay: Human Tumor Cell Panel Assay in vitro, renal panel; format: cell-based; design: key: Most sensitive cell panes are marked with ✓
Text: (§1) The tubulin activities, breast cancer cell line activities, and the cell panels most sensitive to selected analogs are shown in Tables 3 and 4.

[2] = tested on: Ovarian cell lines (especially OVCAR-3); assay: Human Tumor Cell Panel Assay in vitro, ovarian panel; format: cell-based; design: key: Most sensitive cell panes are marked with ✓
Text: as §1

[3] = tested on: MDA-MB-435 estrogen receptor-negative human breast carcinoma cells; assay: In Vivo Tumor Growth Inhibition; design: species or system SCID mice
Method: To determine the antitumor activity of 2-ME and derivatives, SCID mice were s.c. inoculated with 10^6 MDA-MB-435 estrogen receptor-negative human breast carcinoma cells. Treatment was initiated on day 12 when tumor volumes reached 75-100 mm3 in volume. Drugs were suspended in 0.5 g/100 ml of carboxymethylcellulose with sterile glass beads, vortexed for 5 minutes, and administered p.o. in a volume of 0.1 ml. Control mice received 0.1 ml of carboxymethylcellulose p.o. Serial caliper measurements of perpendicular diameters were used to calculate tumor volume using the following: (shortest diameter)^2×(longest diameter)×0.52. T/C was calculated as the volume of treated tumors over the volume of control tumors. A smaller number indicates a greater inhibition of tumor growth.

[4] = tested on: 8 human breast cancer cell lines; assay: human tumor cell panel assay in vitro, breast panel; format: cell-based; design: key to Most Sensitive Cell Lines in Human Tumor Cell Panel Assay: Breast: Most sensitive cell panes are marked with ✓; conditions: for Most Sensitive Cell Lines in Human Tumor Cell Panel Assay: Breast: 8 cell lines, only MCF-7 and T-47D express estrogen and progesterone receptors; for IC50: Homo sapiens, read-out: Tumor Panel: Average log IC50(Molar) against 8 human breast cancer cell lines (converted); for IC50 / Tumor Panel: Average log IC50(Molar) against 8 human breast cancer cell lines: cell panel assay in vitro, two values per cell separated by /
Text: as §1

Melanoma cell lines = assay: Human Tumor Cell Panel Assay in vitro, melanoma panel; format: cell-based; design: key: Most sensitive cell panes are marked with ✓
Text: as §1

CNS cell lines = assay: Human Tumor Cell Panel Assay in vitro, CNS panel; format: cell-based; design: key: Most sensitive cell panes are marked with ✓
Text: as §1

tubulin [5] = assay: tubulin activities of 2-ME analogs (Table 3); format: biochemical
[6] = tested on: corneal neovascularization; assay: Mouse Corneal Micropocket Assay; format: in vivo, mice; conditions: daily oral, 5 days
Method: Five- to 7-week-old SCID female mice were obtained from Massachusetts General Hospital (Boston, Mass.), Immunocompetent 7-9-week-old female C57BL/6 mice were obtained from ARCH Technical Services, Children's Hospital (Boston, Mass.). All animal studies were conducted according to protocols approved by the Animal Ethics Committee of Children's Hospital. Animals were anesthetized in a methoxyflurane (Pittman-Moore, Mundelein, Ill.) chamber prior to all procedures and were observed until fully recovered. Animals were sacrificed by a lethal dose of methoxyflurane.
Mouse Corneal Micropocket Assay To study the effect of microtubule inhibitors on angiogenesis in vivo, a model of angiogenesis in the mouse cornea was used in […] mice as described previously (Kenyon, B. B., Voest, E. E., Chen, C. C., Folkman, J., and D'Amato, R. J. A model of angiogenesis in the mouse cornea. Invest. Ophthalmol. & Visual Sci., 76: 1625-1632, 1996). In brief, after animals were anesthetized, corneal micropockets were created in both eyes with a modified von Graefe cataract knife. Into each pocket, a 0.4 mm ×0.4 mm×0.2 mm sucrose aluminum sulfate (Bukh Meditee, Copenhagen, Denmark) pellet coated with hydron polymer type NCC (IHN Sciences, New Brunswick, N.J.) containing 80 ng of bFGF or 160 ng of human recombinant […] (gift from Reprogenesis, Cambridge, Mass.) was implanted 1.0-1.2 mm from the limbal vessels (bFGF experiments) or 0.5-0.7 mm from the limbus (VEGF experiments). Erythromycin ointment (E. Fougera, Melville, N.Y.) was applied to each operated eye. The sucralfate acts to stabilize the growth factor and to slow its release from the hydron. Before testing each drug in this assay, we found the maximal dose that could be administered daily for 5 consecutive days without producing signs of toxicity (i.e., no hair loss, diarrhea, infection, lethargy, or weight loss). The treated groups received daily oral administration for 5 consecutive days of the stated dosage of 2-ME or a derivative thereof suspended in 0.5 g/100 ml of carboxymethylcellulose.
Treatment was started on the day of pellet implantation. […] For this purpose, the eyes of the mice were examined by slit-lamp biomicroscopy. Area of corneal neovascularization was calculated using a modified formula for a half-ellipse: Area (mm^2)=[π×clock hours×length (mm)×0.2 mm]. This formula provides the most accurate approximation of the area of neovascularization that grows toward the pellet. (Kenyon, B. B., Voest, E. E., Chen, C. C., Folkman, J., and D'Amato, R. J. A model of angiogenesis in the mouse cornea. Invest. Ophthalmol. & Visual Sci., 76: 1625-1632, 1996).

[7] = 150 mg/kg p.o., duration not stated

Row | Structure (SMILES) | IC50 (tubulin [1]) | Most Sensitive Cell Lines in Human Tumor Cell Panel Assay: Ovarian [2] | Most Sensitive Cell Lines in Human Tumor Cell Panel Assay: Breast [4] | Most Sensitive Cell Lines in Human Tumor Cell Panel Assay: CNS (CNS cell lines) | IC50 (tubulin [5]) | further results
1 | CC12CCC3c4cc(Br)c(O)cc4CCC3C1CCC2O (stereo not drawn) [2-Bromoestradiol] | 4.5 ± 0.6 µM | – | – | – | – | –
2 | CC12CCC3c4cc(F)c(O)cc4CCC3C1CCC2O (stereo not drawn) [2-Fluoroestradiol] | 27 ± 6 µM | – | – | – | – | –
3 | C#CC1(O)CCC2C3CCc4cc(O)c(OC)cc4C3CCC21C (stereo not drawn) [2-Methoxy-17-ethynylestradiol] | > 40 µM | – | – | – | – | –
4 | COc1cc2c(cc1OC)C1CCC3(C)C(O)CCC3C1CC2 (stereo not drawn) [2-Methoxyestradiol-3-0-methyl ether] | > 40 µM | – | – | – | – | –
5 | COc1cc2c(cc1O)CCC1C2CCC2(C)C(O)C(O)CC12 (stereo not drawn) [2-Methoxyestriol] | > 40 µM | – | – | – | – | –
6 | COc1ccc2c(c1OC)CCC1C2CCC2(C)C(O)CCC12 (stereo not drawn) [4-Methoxyestradiol-3-0-methyl ether] | > 40 µM | – | – | – | – | –
7 | COc1c(O)ccc2c1CCC1C2CCC2(C)C(O)CCC12 (stereo not drawn) [4-Methoxyestradiol] | > 40 µM | – | – | – | – | –
8 | COc1ccc(CCc2cc(OC)c(OC)c(OC)c2)cc1O [Dihydrocombretastatin A-4] | 0.63 ± 0.03 µM | – | – | – | – | –
9 | COc1ccc2c(c1)CCC1C2CCC2(C)C(O)CCC12 (stereo not drawn) [Estradiol-3-0-methyl ether] | > 40 µM | – | – | – | – | –
10 | C[C@]12CC[C@@H]3c4ccc(O)cc4CC[C@H]3[C@@H]1C[C@@H](O)[C@@H]2O [Estriol] | > 40 µM | – | – | – | – | –
11 | CC=Cc1cc2c(cc1O)CCC1C2CCC2(C)C(O)CCC12 (stereo not drawn) [NSC 667047] | – | ✓ | ✓ | ✓ | 1.2 ± 0.1 µM | Most Sensitive Cell Lines in Human Tumor Cell Panel Assay: Renal (Renal cell lines): ✓; T/C (volume of treated tumors over volume of control tumors) ([3]; 29 days at 75 mg/kg p.o.): 0.40; IC50 [4]: 0.1 µM; Tumor Panel: Average log IC50(Molar) against 8 human breast cancer cell lines [4]: −6.9 log Molar; Most Sensitive Cell Lines in Human Tumor Cell Panel Assay: Melanoma (Melanoma cell lines): ✓
12 | C=Cc1cc2c(cc1O)CCC1C2CCC2(C)C(O)CCC12 (stereo not drawn) [NSC 667049] | – | ✓ | ✓ | ✓ | 5.2 ± 1 µM | Most Sensitive Cell Lines in Human Tumor Cell Panel Assay: Renal (Renal cell lines): ✓; IC50 [4]: 2.51 µM; Most Sensitive Cell Lines in Human Tumor Cell Panel Assay: Melanoma (Melanoma cell lines): ✓
13 | CCOc1cc2c(cc1O)CCC1C2CCC2(C)C(O)CCC12 (stereo not drawn) [NSC 671043] | – | ✓ | ✓ | ✓ | – | T/C (volume of treated tumors over volume of control tumors) [3, 7]: 0.9; IC50 [4]: 0.0316 µM; Tumor Panel: Average log IC50(Molar) against 8 human breast cancer cell lines [4]: −7.7 log Molar
14 | CC(=O)Nc1cc2c(cc1O)CCC1C2CCC2(C)C(O)CCC12 (stereo not drawn) [NSC 673651] | – | – | – | – | – | IC50 [4]: 30.9 µM; Tubulin IC50 (tubulin [5]): weak
15 | CC12CCC3c4cc(OCC(F)(F)F)c(O)cc4CCC3C1CCC2O (stereo not drawn) [NSC 678473] | – | – | – | – | 1.7 µM | IC50 [4]: 0.794 µM; Tumor Panel: Average log IC50(Molar) against 8 human breast cancer cell lines [4]: −5.8 log Molar
16 | CCOc1cc2c(cc1O)C(=O)CC1C2CCC2(C)C(O)CCC12 (stereo not drawn) [NSC 679431] | – | ✓ | ✓ | ✓ | 4.8 µM | Most Sensitive Cell Lines in Human Tumor Cell Panel Assay: Renal (Renal cell lines): ✓; T/C (volume of treated tumors over volume of control tumors) [3, 7]: 0.9; Most Sensitive Cell Lines in Human Tumor Cell Panel Assay: Melanoma (Melanoma cell lines): ✓
17 | C[C@]12CC[C@@H]3c4cc(OCC(F)(F)F)c(O)cc4C(=O)C[C@H]3[C@@H]1CC[C@@H]2O [NSC 681684] | – | – | – | – | 6 µM | Tumor Panel: Average log IC50(Molar) against 8 human breast cancer cell lines [4]: −5.06 log Molar; inhibition in corneal pocket assay ([6]; 225 mg/kg): 36%
18 | CC#Cc1cc2c(cc1O)CCC1C2CCC2(C)C(O)CCC12 (stereo not drawn) [NSC 682429] | – | ✓ | ✓ | ✓ | 2.2 µM | T/C (volume of treated tumors over volume of control tumors) ([3]; 44 days at 225 mg/kg p.o.): 0.25; tumor growth inhibition, comparison in words (FIG. 4) ([3]; FIG. 4): most effective tumor inhibiting compound tested; inhibition in corneal pocket assay ([6]; 300 mg/kg): 34%
19 | CCOc1cc2c(cc1O)C(O)C[C@@H]1[C@@H]2CC[C@]2(C)[C@@H](O)CC[C@@H]12 (stereo partly drawn) [NSC 683688] | – | ✓ | ✓ | ✓ | – | Most Sensitive Cell Lines in Human Tumor Cell Panel Assay: Renal (Renal cell lines): ✓; Tumor Panel: Average log IC50(Molar) against 8 human breast cancer cell lines [4]: −6.3 log Molar; Most Sensitive Cell Lines in Human Tumor Cell Panel Assay: Melanoma (Melanoma cell lines): ✓
